Type in all cases: in vivo
The test system of test [1] is mice. The test can be described thus: Elevated Plus Maze Test. To be noted: 2 mg/kg oral. As to the method: (§1) The following three tests on mice were conducted to investigate the anti-depressant and anti-anxiety activities of the herbal composition of the present invention.
(§2) In all these tests, the test item was the herbal composition as described in Table 2 in the form of a powder. The reference item was Imipramine hydrochloride manufactured by Sigma-Aldrich, USA (for forced swimming and tail suspension tests), and Diazepam tablets supplied by Tianjin Lisheng Pharmaceutical Co. Ltd, China (for elevated plus maze test). Male mice weighing 18-22 g at the start of the study were obtained from the Guangdong Medical Laboratory Animal Center, China.
(§3) At the beginning of each test, the test item was administrated at three dose levels of 69, 208, and 624 mg per kg of mouse by oral route (gastric gavage). For the Forced Swimming Test and Tail Suspension Test, Imipramine was administrated at the dose level of 20 mg per kg of mouse by oral route (gastric gavage), whereas Diazepam was administrated at the dose level of 2 mg per kg of mouse by oral route (gastric gavage). The Control group only received physiological saline orally by gastric gavage.
In this common test for assessing anxiety, the mouse is initially placed in the center of an elevated plus-shaped maze consisting of 4 arms (2 open arms & 2 enclosed arms), with its head facing one of the two open arms. The basic measure is to determine the unconditioned response of the tested mouse to a potentially dangerous environment and the preference of the tested mouse for dark, enclosed places over bright places, and exposed places. Typically, the tested mice would avoid entering into open arms due to anxiety, and mice administrated with anxiolytic […] treatments would have decreased aversion to heights and open spaces.
In this test, two batches of mice were used and in each batch, the mice were allotted at random to five groups, each consisting of ten animals.
The ratio of open arm entry is the frequency of the times the mice entering the open arms to the total frequency of entry into both open and enclosed arms (in percentages). Likewise, the ratio of time spent in open arms is the proportion of time spent by the mice in the open arms to the total times spent in both open and enclosed arms (in percentages).

In test [2] the test system is mice. The test can be described thus: Forced Swimming Test. To be noted: 20 mg/kg oral. An excerpt: After an initial period of vigorous activity, the mice adopt a characteristic immobile posture which is readily identifiable.
Test [3] concerns mice. The test can be described thus: Tail Suspension Test. Particulars: 20 mg/kg oral. As to the method: as §1, §2, §3
When a mouse is suspended by its tail, its basic instinct first drives him to struggle, but this inescapable stress will eventually force it to develop an immobile posture. […]

Counter-ions that a name gives are not always drawn.

Data on 2 compounds can be found in US8252290B2, “Herbal composition for treatment of insomnia and other related disorders and a method of preparing the same” (Vita Green Health Products Company Limited, priority 2008, dated 2012).

Turning to `CN1C(=O)CN=C(c2ccccc2)c2cc(Cl)ccc21` [Diazepam], the Head dipping is reported as 20.67 ± 10.42 times in test [1] (First Batch, Control 16.2 ± 4.61) and 21.5 ± 6.15 times in test [1] (Second Batch, p<0.01 vs Control 14.0 ± 4.64). Moreover, the “Ratio of time spent in open arms” value is given as 50.51 ± 10.58 % in test [1] (First Batch, p<0.01 vs Control 31.94 ± 10.82) and 47.52 ± 12.35 % in test [1] (Second Batch, p<0.01 vs Control 29.82 ± 8.88). The “Ratio of open arms entry” value in test [1] (First Batch, p<0.01 vs Control 36.16 ± 6.13) was 51.27 ± 10.08 %; in test [1] (Second Batch, p<0.01 vs Control 33.66 ± 7.95), 52.48 ± 9.97 %.
In the case of `CN(C)CCCN1c2ccccc2CCc2ccccc21` [Imipramine, Imipramine hydrochloride], the Time of immobility in test [2] (First Batch, p<0.01 vs Control 93.19 ± 31.07) is given as 43.92 ± 17.63 s; in test [2] (Second Batch, p<0.01 vs Control 110.61 ± 28.03), 59.90 ± 17.40 s; in test [3] (First Batch, p<0.01 vs Control 115.89 ± 39.27), 60.08 ± 16.67 s; in test [3] (Second Batch, p<0.01 vs Control 100.76 ± 33.49) it was 52.66 ± 17.05 s.
